# According to ChEMBL document CHEMBL1146908, “Synthesis of 16-mercaptohexadecylphosphocholine, a miltefosine analog with leishmanicidal activity” (2006):
# Legend:
# Format in all cases: functional
# Settings in all cases: read-out: LD50 (the source's name)
# [1] = system: Leishmania donovani; assay: Antileishmanial activity against Leishmania donovani promastigotes by MTT assay
# [2] = system: Leishmania mexicana; assay: Antileishmanial activity against Leishmania pifanoi axenic amastigotes by MTT assay
# [3] = system: Leishmania donovani; assay: Antileishmanial activity against miltefosine-resistant Leishmania donovani promastigotes by MTT assay
# [4] = system: Leishmania mexicana; assay: Antileishmanial activity against miltefosine-resistant Leishmania pifanoi axenic amastigotes by MTT assay
SMILES,LC50 [1],LC50 [2],LC50 [3],LC50 [4]
C[N+](C)(C)CCOP(=O)([O-])OCCCCCCCCCCCCCCCCS,5.1 µM,5.5 µM,> 50 µM,> 50 µM
CCCCCCCCCCCCCCCCOP(=O)([O-])OCC[N+](C)(C)C [MILTEFOSINE],5.3 µM,5 µM,> 50 µM,> 50 µM
